Measurements from US10344025B2, “GLS1 inhibitors for treating disease” (Board of Regents, The University of Texas System, priority 2014, dated 2019).

Columns and labels:
[1] = target: purified recombinant human GAC (GLS1) (Homo sapiens (Human), UniProt O94925); experiment: GLS1 Enzymatic Activity Assay (dual-coupled enzymatic assay, resorufin/Amplex UltraRed readout); assay type: biochemical;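 note: glutamate from GAC coupled via glutamate oxidase and peroxidase to resorufin, read as fluorescence (ex 530, em 590 nm) kinetically or at 20 min, four-parameter logistic IC50 fit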
[2] = tested on: A549 cells; experiment: Proliferation Assay (A549 viability, Cell Titer Fluor, 72 hours); assay type: cell-based; conditions: Homo sapiens
How it was run: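 A549 cells seeded at 1000 cells/well, rested 24 h, then exposed to compound in 0.5% DMSO for 72 h at 37 °C. Viability read by Cell Titer Fluor fluorescence; IC50 from four-parameter logistic fit.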

purified recombinant human GAC (GLS1), sequence (O94925 other isoform, or with tags, fused parts or gaps): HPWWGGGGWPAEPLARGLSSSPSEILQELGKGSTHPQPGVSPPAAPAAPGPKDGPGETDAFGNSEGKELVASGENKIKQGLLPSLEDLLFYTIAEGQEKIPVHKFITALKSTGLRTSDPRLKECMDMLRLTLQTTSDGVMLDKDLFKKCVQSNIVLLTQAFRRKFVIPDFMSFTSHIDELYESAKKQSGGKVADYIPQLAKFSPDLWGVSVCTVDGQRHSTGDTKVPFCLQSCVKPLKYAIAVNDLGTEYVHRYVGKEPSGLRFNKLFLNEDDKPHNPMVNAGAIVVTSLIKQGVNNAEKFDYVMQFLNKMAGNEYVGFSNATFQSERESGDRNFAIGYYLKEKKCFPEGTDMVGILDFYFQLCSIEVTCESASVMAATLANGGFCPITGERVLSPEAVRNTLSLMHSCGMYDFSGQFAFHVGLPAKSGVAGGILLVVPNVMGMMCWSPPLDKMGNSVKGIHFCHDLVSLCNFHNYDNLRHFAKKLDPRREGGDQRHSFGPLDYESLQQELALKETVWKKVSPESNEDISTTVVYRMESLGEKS

Row | IC50 [1] [nM] | EC50 ([2]; A549, 72 h) [nM] | Compound | EC50 [2] [nM]
1 | < 100 | < 100 | O=C(Cc1cc(-c2cccc(OC(F)(F)F)c2)ccn1)Nc1ccc(CCCCn2cc(C(=O)NCCO)nn2)nn1 [Example 246, N-(2-hydroxyethyl)-1-(4-(6-(2-(4-(3-(trifluoromethoxy)phenyl)pyridin-2-yl)acetamido)pyridazin-3-yl)butyl)-1H-1,2,3-triazole-4-carboxamide] | 
2 | < 100 | < 100 | CNC(=O)c1cn(CCCCc2ccc(NC(=O)CN3CCN(Cc4cccc(OC(F)(F)F)c4)CC3=O)nn2)nn1 [Example 247, N-methyl-1-(4-(6-(2-(2-oxo-4-(3-(trifluoromethoxy)benzyl)piperazin-1-yl)acetamido)pyridazin-3-yl)butyl)-1H-1,2,3-triazole-4-carboxamide] | 
3 | < 100 | < 100 | CNC(=O)c1cn(CCCCc2ccc(NC(=O)CN3CCN(c4ccccc4OC(F)(F)F)CC3=O)nn2)nn1 [Example 249, N-methyl-1-(4-(6-(2-(2-oxo-4-(2-(trifluoromethoxy)phenyl)piperazin-1-yl)acetamido)pyridazin-3-yl)butyl)-1H-1,2,3-triazole-4-carboxamide] | 
4 | < 100 | < 100 | CNC(=O)c1cn(CC(F)CCc2ccc(NC(=O)Cc3cc(C4CCOCC4)ccn3)nn2)nn1 (stereo not drawn) [Example 253, 1-(2-fluoro-4-(6-(2-(4-(tetrahydro-2H-pyran-4-yl)pyridin-2-yl)acetamido)pyridazin-3-yl)butyl)-N-methyl-1H-1,2,3-triazole-4-carboxamide] | 
5 | < 100 | < 100 | CNC(=O)c1cn(CCCCc2ccc(NC(=O)Cc3cc(C(C)C(F)(F)F)ccn3)nn2)nn1 (stereo not drawn) [Example 258, N-methyl-1-(4-(6-(2-(4-(1,1,1-trifluoropropan-2-yl)pyridin-2-yl)acetamido)pyridazin-3-yl)butyl)-1H-1,2,3-triazole-4-carboxamide] | 
6 | < 100 | < 100 | CNC(=O)c1cn(CC(F)CCc2ccc(NC(=O)Cc3cc(C(F)(F)F)cc(C4CC4)n3)nn2)nn1 (stereo not drawn) [Example 263, 1-(4-(6-(2-(6-cyclopropyl-4-(trifluoromethyl)pyridin-2-yl)acetamido)pyridazin-3-yl)-2-fluorobutyl)-N-methyl-1H-1,2,3-triazole-4-carboxamide] | 
7 | < 100 | < 100 | CNC(=O)c1cn(CC(F)CCc2nnc(NC(=O)Cc3cc(C4CCOCC4)ccn3)s2)nn1 (stereo not drawn) [Example 265, 1-(2-fluoro-4-(5-(2-(4-(tetrahydro-2H-pyran-4-yl)pyridin-2-yl)acetamido)-1,3,4-thiadiazol-2-yl)butyl)-N-methyl-1H-1,2,3-triazole-4-carboxamide] | 
8 | < 100 | < 100 | CNC(=O)c1cn(C[C@H](F)CCc2ccc(NC(=O)Cc3cc(C(F)(F)C4CC4)ccn3)nn2)nn1 [Example 267, (R)-1-(4-(6-(2-(4-(cyclopropyldifluoromethyl)pyridin-2-yl)acetamido)pyridazin-3-yl)-2-fluorobutyl)-N-methyl-1H-1,2,3-triazole-4-carboxamide] | 
9 | < 100 | < 100 | CNC(=O)c1cn(C[C@H](F)CCc2ccc(NC(=O)Cc3cn(-c4cccc(OC(F)(F)F)c4)cn3)nn2)nn1 [Example 270, (R)-1-(2-fluoro-4-(6-(2-(1-(3-(trifluoromethoxy)phenyl)-1H-imidazol-4-yl)acetamido)pyridazin-3-yl)butyl)-N-methyl-1H-1,2,3-triazole-4-carboxamide] | 
10 | < 100 | < 100 | CNC(=O)c1cn(C[C@H](F)CCc2ccc(NC(=O)Cc3cc(OC4CCOCC4)ccn3)nn2)nn1 [Example 271, (R)-1-(2-fluoro-4-(6-(2-(4-((tetrahydro-2H-pyran-4-yl)oxy)pyridin-2-yl)acetamido)pyridazin-3-yl)butyl)-N-methyl-1H-1,2,3-triazole-4-carboxamide] | 
11 | < 100 | < 100 | CNC(=O)c1cn(C[C@H](F)CCc2ccc(NC(=O)Cc3ccccc3)nn2)nn1 [Example 273, (R)-1-(2-fluoro-4-(6-(2-phenylacetamido)pyridazin-3-yl)butyl)-N-methyl-1H-1,2,3-triazole-4-carboxamide] | 
12 | < 100 | < 100 | CNC(=O)c1cn(CC(F)CCc2ccc(NC(=O)Cc3cc(OC(F)F)ccn3)nn2)nn1 (stereo not drawn) [Example 274, 1-(4-(6-(2-(4-(difluoromethoxy)pyridin-2-yl)acetamido)pyridazin-3-yl)-2-fluorobutyl)-N-methyl-1H-1,2,3-triazole-4-carboxamide] | 
13 | < 100 | < 100 | CNC(=O)c1cn(C[C@H](F)CCc2ccc(NC(=O)Cc3cc(C4CC4)ccn3)nn2)nn1 [Example 275, (R)-1-(4-(6-(2-(4-cyclopropylpyridin-2-yl)acetamido)pyridazin-3-yl)-2-fluorobutyl)-N-methyl-1H-1,2,3-triazole-4-carboxamide] | 
14 | 100 to 500 | 100 to 500 | O=C(CC1CC1)Nc1cn(CCCCn2cc(C(=O)NCc3cccc(OC(F)(F)F)c3)nn2)nn1 [Example 276, 1-{4-[4-(2-cyclopropylacetamido)-1H-1,2,3-triazol-1-yl]butyl}-N-{[3-(trifluoromethoxy)phenyl]methyl}-1H-1,2,3-triazole-4-carboxamide] | 
15 | 100 to 500 | 500 to 5000 | O=C(CC1CCCC1)Nc1cn(CCCCn2cc(C(=O)NCc3ccccn3)nn2)nn1 [Example 277, 1-{4-[4-(2-cyclopentylacetamido)-1H-1,2,3-triazol-1-yl]butyl}-N-(pyridin-2-ylmethyl)-1H-1,2,3-triazole-4-carboxamide] | 
16 | < 100 | 100 to 500 | O=C(Cc1cccc(OC(F)(F)F)c1)Nc1cn(CCCCn2cc(C(=O)NCc3ccccn3)nn2)nn1 [Example 279, N-(pyridin-2-ylmethyl)-1-[4-(4-{2-[3-(trifluoromethoxy)phenyl]acetamido}-1H-1,2,3-triazol-1-yl)butyl]-1H-1,2,3-triazole-4-carboxamide] | 
17 | 100 to 500 | 500 to 5000 | O=C(CC1CCCCC1)Nc1cn(CCCCn2cc(C(=O)NCc3ccccn3)nn2)nn1 [Example 280, 1-{4-[4-(2-cyclohexylacetamido)-1H-1,2,3-triazol-1-yl]butyl}-N-(pyridin-2-ylmethyl)-1H-1,2,3-triazole-4-carboxamide] | 
18 | 100 to 500 | 500 to 5000 | O=C(Cc1cccnc1)Nc1cn(CCCCn2cc(C(=O)NCC3CCCCC3)nn2)nn1 [Example 284, N-(cyclohexylmethyl)-1-(4-{4-[2-(pyridin-3-yl)acetamido]-1H-1,2,3-triazol-1-yl}butyl)-1H-1,2,3-triazole-4-carboxamide] | 
19 | 500 to 5000 | 500 to 5000 | O=C(Cc1ccccn1)Nc1cn(CCCCn2cc(C(=O)NCC3CCCCC3)nn2)nn1 [Example 285, N-(cyclohexylmethyl)-1-(4-{4-[2-(pyridin-2-yl)acetamido]-1H-1,2,3-triazol-1-yl}butyl)-1H-1,2,3-triazole-4-carboxamide] | 
20 | < 100 | 100 to 500 | O=C(Cc1cccc(OC(F)(F)F)c1)Nc1cn(CCCCn2cc(C(=O)NCC3CCCCC3)nn2)nn1 [Example 286, N-(cyclohexylmethyl)-1-[4-(4-{2-[3-(trifluoromethoxy)phenyl]acetamido}-1H-1,2,3-triazol-1-yl)butyl]-1H-1,2,3-triazole-4-carboxamide] | 
21 | 100 to 500 | 500 to 5000 | O=C(CC1CCCC1)Nc1cn(CCCCn2cc(C(=O)NCC3CCCC3)nn2)nn1 [Example 288, 1-{4-[4-(2-cyclopentylacetamido)-1H-1,2,3-triazol-1-yl]butyl}-N-(cyclopentylmethyl)-1H-1,2,3-triazole-4-carboxamide] | 
22 | 100 to 500 | 500 to 5000 | O=C(Cc1cccc(OC(F)(F)F)c1)Nc1cn(CCCCn2cc(C(=O)NCC3CCCC3)nn2)nn1 [Example 292, N-(cyclopentylmethyl)-1-[4-(4-{2-[3-(trifluoromethoxy)phenyl]acetamido}-1H-1,2,3-triazol-1-yl)butyl]-1H-1,2,3-triazole-4-carboxamide] | 

Row | Compound | IC50 [1] [nM] | EC50 ([2]; A549, 72 h) [nM] | EC50 [2] [nM]
23 | CNC(=O)c1cn(CC(F)CCc2ccc(NC(=O)Cc3cncc(OC4CC(F)(F)C4)c3)nn2)nn1 (stereo not drawn) [Example 245, 1-(4-(6-(2-(5-(3,3-difluorocyclobutoxy)pyridin-3-yl)acetamido)pyridazin-3-yl)-2-fluorobutyl)-N-methyl-1H-1,2,3-triazole-4-carboxamide] | < 100 | < 100 | 
24 | O=C(Cc1ccccn1)Nc1nnc(CC[C@@H](F)Cn2cc(C(=O)NCc3cc(C(F)(F)F)ccn3)nn2)s1 [Example 250, (R)-1-(2-fluoro-4-(5-(2-(pyridin-2-yl)acetamido)-1,3,4-thiadiazol-2-yl)butyl)-N-((4-(trifluoromethyl)pyridin-2-yl)methyl)-1H-1,2,3-triazole-4-carboxamide] | < 100 |  | < 100
25 | CNC(=O)c1cn(CC(F)CCc2ccc(NC(=O)Cc3cc(OC4CCC4)ccn3)nn2)nn1 (stereo not drawn) [Example 251, 1-(4-(6-(2-(4-cyclobutoxypyridin-2-yl)acetamido)pyridazin-3-yl)-2-fluorobutyl)-N-methyl-1H-1,2,3-triazole-4-carboxamide 2,2,2-trifluoroacetate] | < 100 | < 100 | 
26 | CNC(=O)c1cn(CC(F)CCc2ccc(NC(=O)Cc3cc(OCC(F)(F)F)ccn3)nn2)nn1 (stereo not drawn) [Example 262, 1-(2-Fluoro-4-(6-(2-(4-(2,2,2-trifluoroethoxy)pyridin-2-yl)acetamido)pyridazin-3-yl)butyl)-N-methyl-1H-1,2,3-triazole-4-carboxamide] | < 100 |  | < 100
27 | CNC(=O)c1cn(C[C@H](F)CCc2ccc(NC(=O)Cc3cc(OC4CC(OCC(F)(F)F)C4)ccn3)nn2)nn1 (stereo partly drawn) [Example 269, (R)-1-(2-fluoro-4-(6-(2-(4-(3-(2,2,2-trifluoroethoxy)cyclobutoxy)pyridin-2-yl)acetamido)pyridazin-3-yl)butyl)-N-methyl-1H-1,2,3-triazole-4-carboxamide] | < 100 | < 100 | 
